From ChEMBL document CHEMBL4715699, “Design, synthesis and biological evaluation of 1,3,6-trisubstituted β-carboline derivatives for cytotoxic and anti-leishmanial potential” (Bioorg Med Chem Lett, 2016)
Calls of active or inactive are those of the source. The calls are words filed in the database; no cut-off is given here.

What was measured:
Leishmania donovani = assay: Antileishmanial activity against Leishmania donovani MHOM/80/IN/Dd8 promastigotes infected in THP-1 cells assessed as measured after 48 hrs by MTT assay; format: functional, organism-based
A549 [1] = assay: Cytotoxicity against human A-549 cells assessed as reduction in cell viability at 10 uM measured after 24 hrs by MTT assay relative to control; format: functional, cell-based; settings: A549, 24 h
HeLa = assay: Cytotoxicity against human HeLa cells assessed as reduction in cell viability at 10 uM measured after 24 hrs by MTT assay relative to control; format: functional, cell-based
HepG2 = assay: Cytotoxicity against human HepG2 cells assessed as reduction in cell viability at 10 uM measured after 24 hrs by MTT assay relative to control; format: functional, cell-based; settings: HepG2, 24 h
MCF7 [2] = assay: Cytotoxicity against human MCF-7 cells assessed as reduction in cell viability at 10 uM measured after 24 hrs by MTT assay relative to control; format: functional, cell-based; settings: MCF7, 24 h
L132 = assay: Cytotoxicity against human L-132 cells assessed as reduction in cell viability at 10 uM measured after 24 hrs by MTT assay relative to control; format: cell-based; settings: L132, 24 h
THP-1 = assay: Cytotoxicity against differentiated human THP-1 cells measured after 48 hrs by MTT assay; format: cell-based; settings: THP-1, 48 h
[3] = Selectivity index, ratio of IC50 for differentiated human THP-1 cells to IC50 for Leishmania donovani MHOM/80/IN/Dd8 promastigotes; format: toxicity; settings: differentiated THP-1 cells, read-out: Ratio IC50
[4] = Solubility of the compound in 20% DMSO; format: physicochemical
A549 [5] = assay: Induction of apoptosis in human A549 cells at 10 uM measured after 6 hrs by Annexin V/Propidium iodide staining based confocal microscopy; format: functional, cell-based
MCF7 [6] = assay: Induction of apoptosis in human MCF7 cells at 10 uM measured after 6 hrs by Annexin V/Propidium iodide staining based confocal microscopy; format: functional, cell-based
[7] = Inhibition of IKK in human HeLa S3 cells using biotinylated IkaapaB-alpha by ELISA phosphorylation assay; format: cell-based
[8] = Inhibition of IKK (unknown origin); parameters: species or system Homo sapiens
[9] = Leishmania donovani, MHOM/80/IN/Dd8, THP-1, 48 h, read-out: IC50

## CCCCC(=O)Nc1ccc2[nH]c3c(C)nc(C(=O)OC)cc3c2c1
Leishmania donovani; [9]
  IC50: > 100 µM

## COC(=O)c1cc2c([nH]c3ccccc32)c(C)n1
A549 [1]
  IC50: 37.8 µM
HeLa
  IC50: 35.6 µM
HepG2
  IC50: 39.6 µM
MCF7 [2]
  IC50: 45 µM
L132
  IC50: 39.3 µM
Leishmania donovani; [9]
  IC50: 9 µM
THP-1
  IC50: > 100 µM
[3]
  selectivity ratio: > 11.1

## COC(=O)c1cc2c([nH]c3ccc(NC(=O)c4ccc(C(F)(F)F)cc4)cc32)c(C)n1
Leishmania donovani
  IC50: Nd(Insoluble)
[4]
  solubility: Insoluble

## CCCCCCCCCCCC(=O)Nc1ccc2[nH]c3c(C)nc(C(=O)OC)cc3c2c1
Leishmania donovani
  IC50: Nd(Insoluble)
[4]
  solubility: Insoluble

## COC(=O)c1cc2c([nH]c3ccc(NC(=O)c4ccco4)cc32)c(C)n1
Leishmania donovani; [9]
  IC50: > 100 µM

## COC(=O)c1cc2c([nH]c3ccc(NC(=O)c4ccc(OC)cc4)cc32)c(C)n1
Leishmania donovani
  IC50: Nd(Insoluble)
[4]
  solubility: Insoluble

## COC(=O)c1cc2c([nH]c3ccc(NC(=O)c4ccc(C)cc4)cc32)c(C)n1
Leishmania donovani
  IC50: Nd(Insoluble)
[4]
  solubility: Insoluble

## COC(=O)c1cc2c([nH]c3ccc(NC(=O)c4ccccc4C(F)(F)F)cc32)c(C)n1
Leishmania donovani; [9]
  IC50: > 100 µM

## COC(=O)c1cc2c([nH]c3ccc(NC(=O)c4ccccc4)cc32)c(C)n1
Leishmania donovani; [9]
  IC50: > 100 µM

## COC(=O)c1cc2c([nH]c3ccc(NC(=O)COc4ccccc4)cc32)c(C)n1
Leishmania donovani
  IC50: Nd(Insoluble)
[4]
  solubility: Insoluble

## COC(=O)c1cc2c([nH]c3ccc(NC(=O)c4cc(C(F)(F)F)cc(C(F)(F)F)c4)cc32)c(C)n1
A549 [1]
  IC50: 15.5 µM
HeLa
  IC50: 5.3 µM
HepG2
  IC50: 6.15 µM
MCF7 [2]
  IC50: 13.4 µM
L132
  IC50: 11.2 µM
A549 [5]
  Activity: Active
MCF7 [6]
  Activity: Active
Leishmania donovani
  IC50: Nd(Insoluble)
[4]
  solubility: Insoluble

## Clc1cc2c([nH]c3cnccc32)c(Cl)c1OCC1CC1
[7]
  IC50: 0.08 µM

## COC(=O)c1cc2c([nH]c3ccc(NC(=O)C4CCCCC4)cc32)c(C)n1
Leishmania donovani; [9]
  IC50: 23.5 µM
THP-1
  IC50: 77 µM
[3]
  selectivity ratio: 3.27

## COC(=O)c1cc2c([nH]c3ccc(NC(C)=O)cc32)c(C)n1
Leishmania donovani; [9]
  IC50: > 100 µM

## COC(=O)c1cc2c([nH]c3ccc([N+](=O)[O-])cc32)c(C)n1
Leishmania donovani; [9]
  IC50: > 100 µM

## COC(=O)c1cc2c([nH]c3ccc(NC(=O)c4cc(OC)c(OC)c(OC)c4)cc32)c(C)n1
Leishmania donovani; [9]
  IC50: 100 µM

## COC(=O)c1cc2c([nH]c3ccc(NC(=O)/C=C/c4ccccc4)cc32)c(C)n1
Leishmania donovani
  IC50: Nd(Insoluble)
[4]
  solubility: Insoluble

## COC(=O)c1cc2c([nH]c3ccc(N)cc32)c(C)n1
Leishmania donovani; [9]
  IC50: > 100 µM

## COC(=O)c1cc2c([nH]c3ccc(NC(=O)c4ccc(C(C)(C)C)cc4)cc32)c(C)n1
A549 [1]
  IC50: 4.72 µM
HeLa
  IC50: 3.59 µM
HepG2
  IC50: 3.65 µM
MCF7 [2]
  IC50: 4.17 µM
L132
  IC50: 3.26 µM
A549 [5]
  Activity: Active
MCF7 [6]
  Activity: Active
Leishmania donovani; [9]
  IC50: 68 µM
THP-1
  IC50: 32 µM
[3]
  selectivity ratio: 0.47

## COC(=O)c1cc2c([nH]c3ccc(NC(=O)Oc4ccc([N+](=O)[O-])cc4)cc32)c(C)n1
Leishmania donovani
  IC50: Nd(Insoluble)
[4]
  solubility: Insoluble

## COCC(=O)Nc1ccc2[nH]c3c(C)nc(C(=O)OC)cc3c2c1
Leishmania donovani; [9]
  IC50: > 100 µM

## COC(=O)c1cc2c([nH]c3ccc(NC(=O)c4cc(C)oc4C)cc32)c(C)n1
Leishmania donovani; [9]
  IC50: > 100 µM

## CCCCCCCCCCCCCCCCOP(=O)([O-])OCC[N+](C)(C)C [MILTEFOSINE]
Leishmania donovani; [9]
  IC50: 11.9 µM
THP-1
  IC50: 31.5 µM
[3]
  selectivity ratio: 2.64

## COC(=O)c1cc2c([nH]c3ccc(NC(=O)c4cccs4)cc32)c(C)n1
Leishmania donovani; [9]
  IC50: > 100 µM

## COC(=O)c1cc2c([nH]c3ccc(NC(=O)c4ccc(Br)cc4)cc32)c(C)n1
Leishmania donovani
  IC50: Nd(Insoluble)
[4]
  solubility: Insoluble

## COC(=O)c1cc2c([nH]c3ccc(NC(=O)c4ccc5ccccc5c4)cc32)c(C)n1
Leishmania donovani
  IC50: Nd(Insoluble)
[4]
  solubility: Insoluble

## CC(=O)O[C@@]12CO[C@@H]1C[C@H](O)[C@@]1(C)C(=O)[C@H](O)C3=C(C)[C@@H](OC(=O)[C@H](O)[C@@H](NC(=O)OC(C)(C)C)c4ccccc4)C[C@@](O)([C@@H](OC(=O)c4ccccc4)[C@H]21)C3(C)C [DOCETAXEL ANHYDROUS]
A549 [1]
  IC50: 3.41 µM
HeLa
  IC50: 3.23 µM
HepG2
  IC50: 2.86 µM
MCF7 [2]
  IC50: 3.6 µM
L132
  IC50: 1.68 µM

## COc1ccc2[nH]c3cnccc3c2c1Br
[8]
  IC50: 1 µM
